Ends that are not written are not given here.
Key:
CHO cells = experiment: Transfection in vitro, luciferase plasmid pTG11236; type: cell-based
Method: (§1) A comparison of ppTG1 and KALA was carried out in HeLa and CHO cells. 5×10^4 cells were seeded on 24 well plates. The next day, cells were transfected with 500 ng and 50 ng of pTG11236, complexed with ppTG1 or KALA in 30 μl 0.9% NaCl. The charge ratio +/− varied from 1, 2, 3, 4, 7 to 10. Cells were harvested 20 h after transfection and lysis was obtained in 100 μl Promega lysis buffer. Luciferase activity and total protein concentrations in 20 μl were determined.

293-EBNA cells = experiment: Transfection in vitro, luciferase plasmid pTG11056; type: cell-based
Method: (§2) Cells were plated on 24 well plates at a density of 4×10^4 (293-EBNA ) or 7×10^4 (HeLa, Renca) cells/well in DMEM supplemented with 10% FCS. The next day, the medium was replaced by 200 μl serum-free DMEM and plasmid (pTG11056 or pTG11236)/peptide complexes or plasmid/peptide/lipid complexes were prepared in 30 μl 0.9% NaCl or 5% glucose. After 20 min at room temperature these complexes were added to the cells which were then incubated for 2-3 h at 37° C. and 5% CO2 before 1 ml serum-containing DMEM was added. Approximately 20-hours later, cells were lysed by addition of 100 μl 1× Promega lysis buffer, 20 μl of the lysates were analysed for luciferase activity. Proteins were quantified with the bicinchonic acid (BCA) colorimetric method (Smith, Anal. Biochem. 150 (1985), 76-85).
4×10^4 293-EBNA cells, plated on 24 well plates the day before, were transfected with 0.5 μg, 0.1 μg, 0.05 μg and 0.01 μg of the plasmid pTG11056. The plasmid was either mixed with completely or uncompletely DNA-complexing amounts of ppTG1 in 30 μl 5% glucose and after 20 min at room temperature the mixture was added to the cells which were incubated in 200 μl serum-free medium. Further, pTG11056 was formulated with the established transfection reagents Lipofectin and PEI. […] After twenty hours, cells were washed and luciferase activity was determined in ⅕ of the lysed cells.

HeLa cells = experiment: Transfection in vitro, luciferase plasmid pTG11236; type: cell-based
Method: as §2
In another experiment, 7×10^4 HeLa cells, seeded on 24-well plates the day before transfection, were transfected with 0.5 μg or 0.05 μg pTG11236, complexed with Lipofectin or ppTG1. The plasmid/peptide complexes were prepared in 30 μl of 5% glucose or 0.9% NaCl and added to the cells (200 μl serum-free medium) after 20 min at room temperature. Serum-containing medium was added after 3 h, the cells were harvested the next day.
A comparison of the effect on transfection efficiency of ppTG1 and JTS-1-K13 was carried out in HeLa cells. Complexes of 0.5 μg or 0.05 μg pTG11236 were formed with increasing amounts the respective peptide.
as §1
HeLa cells were seeded at a density of 6×10^4 cells on 24 well plates. The next day, cells were incubated with 200 μl serum-free medium, 30 μl of plasmid (50 ng)/peptide/lipid mixtures were added and incubated for 3 h at 37° C. in 5% CO2. 1 ml of DMEM+10% FCS was then added. The next day, the medium was removed and cells were washed with 500 μl of PBS and subsequently treated with 100 μl of Promega lysis buffer. Plates were stored at −80° C. until luciferase activity was measured of 20 μl of the cell lysate. The protein assay was performed using the Pierce BCA kit.
JTS1 was dissolved to 1 mg/ml in 1 mM NaOH and mixed with DNA diluted in 5% glucose. ppTG1 was then added to this solution. The pcTG90/DOPE ppTG1 mixtures were prepared as described in Example 6. Transfection assays were performed on HeLa cells with 50 ng of plasmid as described in Example 6.
The series of ppTG1 derivatives listed in Material and Methods were tested for their gene transfer efficiencies in Hela cells. 6×10^4 cells were transfected with 50 ng pTG11236 complexed with increasing amounts of peptide. Luciferase activity was analyzed day 1 after transfection. The results are shown in FIG. 10B (ppTG20, ppTG21), FIG. 10C(ppTG25, ppTG26, ppTG27), FIG. 10D (ppTG28 to ppTG33), FIG. 10E (PEG-ppTG1 and PEG-ppTG20), FIG. 10F (ppTG22 to ppTG24) and FIG. 10G (ppTG20-D).

B6SJL mice = system: B6SJL mice
Method: Indicated amounts of the luciferase expression plasmid pTG11236 were mixed with ppTG1 and /or pcTG90/DOPE. The resulting formulations were injected intramuscularly(30 μl), intravenously(250 μl) into mice or intratumorally (Renca tumors, 100 μgl). Muscles, tumors or organs were recovered at the indicated points of time, macerated and tested for luciferase activity with the luciferase assay kit from Promega.
60 μg or 30 μg of the plasmid pTG11236 were mixed with peptide ppTG1 and/or with a pcTG90/DOPE 1:2 mixture in 250 μl 5% glucose. After 20 min incubation at room temperature, the complexes were intravenously injected into B6SJL mice. Mice were sacrificed at day 1. The lungs were recovered, total protein was extracted and luciferase activity was analysed.
The potential of gene transfer with mono-component peptide vectors was investigated in vivo. Fifty or sixty μg of the luciferase expression plasmid pTG11236 were complexed with pcTG90/DOPE (1:2) [+/−] 10 in 250 μl 5% glucose (Meyer et al. 2000). The resulting lipoplex vector served as reference for gene transfer studies with pTG11236 complexed with ppTG1, ppTG20 and ppTG32 in 250 μl 5% glucose. Five mice per group were intravenously injected, the animals were sacrificed at day 1 after injection. Lungs were tested for luciferase activity.

[1] = Liposome leakage assay, POPC/cholesterol 3:2 liposomes; settings: for liposome leakage activity, in words: POPC/chol 3:2 liposomes
Method: Increasing amounts of the indicated peptides were incubated with POPC/Cholesterol (3:2 mol/mol) liposomes for 30 min at RT. Emitted fluorescence was plotted against peptide concentration. […] B) Liposome leakage activity with complexes of ppTG1 and the plasmid pTG11236 at pH7.
1-Palmitoyl-2-Oleoyl-phosphatidylcholine (POPC) liposomes were prepared by the repeated freeze-thaw method followed by extrusion (Olson et al., 1979, Biochim. Biophys. Acta 557, 19-23). Ten μ-moles of POPC in chloroform were placed in a glass tube and solvent was evaporated under reduced pressure using a Labconco Rapidvap vortex evaporator (Uniequip, Germany). The resulting lipid film was hydrated with 0.5 ml of an aqueous solution of calcein (lOOmM calcein, 3.75 eq. NaOH, 50mM NaCl). The lipid suspension was sonicated until the solution became clear using a sonic water bath (Bransonic 221, Branson Ultrasonics Corp., USA). Five cycles of freeze-thaw were performed before liposomes were extruded by 4 passages through 200 nm pore diameter polycarbonate membranes (Nuclepore, Costar, Mass., USA). Free calcein was removed from calcein encapsulated into liposomes by gel exclusion chromatography using a Sephadex G-50 column (3 cm×14 cm) and a 200 mM NaCl, 25 mM HEPES, pH 7.3 solution as the elution buffer. The final lipid concentration was determined by a phosphorus assay (Bartlett, 1959, J. Biol. Chem. 234, 466-469). Liposomes' diameter was determined by dynamic laser light scattering using a Coulter N4 Plus submicron particle sizer (Coultronics France S. A, France). Measurements were performed within a 3 nm-10000 nm size window with a fixed 90° scattered light angle.
The liposome leakage assay was carried out as described in Planck et al. (1994, J. Biol. Chem. 269, 12918-12924). The liposome stock solution was diluted to a lipid concentration of 45 μM in 1.8× assay buffer (360 mM NaCl, 36 mM sodium citrate, pH 5 and pH 7). A 1:5 serial dilution of the tested peptide was carried out in a 96-well microtiter plate by transferring 20 μl of the peptide solution from one well to the next well and diluting with 80 μl H2O. 100 μl of the liposome solution was added in each well (final lipid concentration: 25 μM) and, after 30 min at room temperature, was assayed for fluorescence at 535 nm (excitation: 485 nm) on a microtiter plate fluorescence spectrometer (WALLAC, 1420 multilabel counter Victor). These conditions are appropriate to analyze fluorescein and as close as possible to the appropriate excitation/ emission profile of calcein (495 nm /515 nm). The value for 100% leakage was obtained by addition of 1 μl of a 10% Triton X-100 solution. Leakage activity was plotted against peptide concentration.
Liposome leakage activities were analyzed on liposomes consisting of POPC and cholesterol at a molar ratio of 3:2 (mol/mol).
Complexes of ppTG1 with plasmid DNA pTG11236 were tested for liposome leakage activity on POPC/chol 3:2 liposomes.
The series of ppTG1 derivatives as they are listed in Materials and Methods was tested for liposome leakage activity on POPC/chol 3:2 liposomes at pH7.

[2] = 60 μg pTG11236 with 150 μg ppTG1

GLFKALLKLLKSLWKLLLKA
more efficient than the complex comprising KALA, best case (CHO cells): 2500 fold | more efficient in gene transfer than KALA (CHO cells; 50 ng pTG11236, optimum charge ratios): 68 fold | more efficient in gene transfer than KALA (CHO cells; 500 ng pTG11236, optimum charge ratios): 9 fold | transfection efficiency (293-EBNA cells; 0.05 μg pTG11056 mixed with 0.065 μg ppTG1, charge ratio around 1): still showed high transfection efficiency | luciferase activities (293-EBNA cells; 0.5 μg pTG11056 complexed with 0.65 μg ppTG1, charge ratio around 1): higher than those observed with complexes formed with Lipofectin or PEI | luciferase activities (HeLa cells; 0.05 μg pTG11236, complexes in 0.9% NaCl): higher luciferase activities than observed for Lipofectin formulations | luciferase activities (HeLa cells; 0.5 μg or 0.05 μg pTG11236 with 1.17 μg or 0.117 μg ppTG1, charge ratio 1.8): comparable luciferase activities as observed for DNA formulated with Lipofectin | more efficient than the complex comprising KALA, best case (HeLa cells; HeLa): 3000 fold | reporter gene expression after re-administration at day 3 (B6SJL mice; [2]): still refractory | reporter gene expression after re-administration at day 14 (B6SJL mice; [2]): re-appearance of reporter gene expression | mice with gene expression in the lung (B6SJL mice; complexes of pTG11236 and ppTG1, i.v., day 1): 5 out of 5 | gene expression 3 days after injection (B6SJL mice; ppTG1/plasmid complexes, data not shown): dropped 3 days after injection to background levels | liposome leakage activity, in words ([1]; pH5): could efficiently liberate calcein | liposome leakage activity, in words ([1]; pH7): could efficiently liberate calcein | liposome leakage of peptide/plasmid complexes ([1]; complexed with pTG11236, P/N 5 or 10, pH7): comparable to free ppTG1 | liposome leakage of peptide/plasmid complexes ([1]; complexed with pTG11236, P/N of 1 or 0.8, pH7): slightly reduced | destabilization of POPC/Chol liposomes ([1]; peptide alone or complexed with plasmid DNA, summary): destabilizes efficiently

Reference: patent US20020055174A1, “Complex for transferring an anionic substance of interest into a cell” (priority 2000, published 2002)
